Test results taken from patent US20020032214A1, “Pharmaceutical composition comprising a compound having anti-xa activity and a platelet aggregation antagonist compound” (priority 1996, published 2002).

Assay: Template bleeding time in the canine model of unstable angina
Format: in vivo, Mongrel dogs
Conditions: high-dose of the platelet aggregation antagonist compound, i.v., dogs
Protocol: Mongrel dogs of either sex (15-21 kg) are anesthetized with sodium pentobarbital (30 mg/kg, i.v., with supplements given as needed), intubated, and ventilated using a Harvard respirator (Harvard Apparatus. S. Natick, Mass.). A tri-lumen catheter (SAFEDWELLplus, Becton Dickinson, Sandy, Utah) is placed in the right femoral vein for the administration of test agents and supplemental anesthesia. The right femoral artery is cannulated for measurement of arterial blood pressure and for obtaining blood samples.
Thirty dogs are assigned to one of six adjunctive treatment groups. […]
After consistent CFRs are established for at least 20 minutes, compounds are administered as described above and blood flow is monitored during the one hour infusion period. […] Mean arterial blood pressure, heart rate and EKG are recorded for the duration of the protocol (Grass polygraph, Model 7D, Grass Instruments, Mass.).
Template bleeding time measurements are obtained at the same time points as the blood samples, as mentioned previously. Template bleeding time is measured after a uniform incision is made on the mucous membrane of the inner upper lip with a Surgicutt® automated incision device (ITC, Edison, N.J.). […] Template bleeding time is measured from the moment of the incision until the blood no longer stained the blotting paper. […]

CCCCS(=O)(=O)N[C@@H](Cc1ccc(OCCCCC2CCNCC2)cc1)C(=O)O [BSPBPA, N-(n-butylsulfonyl)-4-(piperidin-4-ylbutyloxy)-L-phenylalanine]
increase in template bleeding time: > 5 fold
